Laboratory results from patent US6228880A, “4-amino-(ethylamino)-oxindole dopamine autoreceptor agonists” (American Home Products Corp, priority 1999, dated 2001).
Structures can show the parent of a compound that is named as a salt.

Tests used:
[1] = target: T1, dopamine autoreceptor (D2) (Rattus norvegicus, UniProt P61169); assay: Affinity for the dopamine autoreceptor, rat striatal tissue homogenate (D2 Quin.); type: binding; settings: homogenized rat striatal brain tissue
T1 construct: from tissue; host or cells: rat striatum homogenate
T1 sequence (P61169 whole entry): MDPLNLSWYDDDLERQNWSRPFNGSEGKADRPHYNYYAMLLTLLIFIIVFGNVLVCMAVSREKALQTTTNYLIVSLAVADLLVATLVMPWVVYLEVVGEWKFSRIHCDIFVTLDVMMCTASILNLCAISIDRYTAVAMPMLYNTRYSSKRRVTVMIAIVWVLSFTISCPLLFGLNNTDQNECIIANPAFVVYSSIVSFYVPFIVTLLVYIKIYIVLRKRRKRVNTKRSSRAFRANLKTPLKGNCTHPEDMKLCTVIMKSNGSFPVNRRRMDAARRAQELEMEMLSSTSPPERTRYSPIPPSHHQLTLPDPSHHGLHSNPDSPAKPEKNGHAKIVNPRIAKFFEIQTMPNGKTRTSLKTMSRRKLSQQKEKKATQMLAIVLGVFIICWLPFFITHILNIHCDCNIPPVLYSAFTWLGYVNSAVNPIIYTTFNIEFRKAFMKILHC
Protocol: (§1) The affinity for the dopamine autoreceptor was established by the standard experimental test procedure of Seemen and Schaus, European Journal of Pharmacology, 203:105-109 (1991). According to this procedure, homogenized rat striatal brain tissue was incubated with the appropriate concentrations of test compound, filtered and washed and counted in a Betaplate scintillation counter.

dopamine D2 receptor [2] = target: T2, dopamine D2 receptor (Rattus norvegicus, UniProt P61169); assay: Ratio of D2 Spiper to D2 Quin. (LowAg/HighAg, intrinsic activity); type: binding; settings: D2 Spiper IC50 / D2 Quin. IC50 (LowAg/HighAg)
T2 construct: from tissue; host or cells: limbic brain tissue homogenate
T2 sequence (P61169 whole entry): as above
From the text: Efforts to induce antipsychotic activity with dopamine autoreceptor agonists have been successful (e.g., see Dorsini et al., Adv. Biochem. Psychopharmacol., 16:645-648 (1977); Tamminga et al., Science, 200:567-568 (1975); and Tamminga et al., Psychiatry 398-402 (1986). A method for determining intrinsic activity at the dopamine D2 receptor was recently reported by Lahti et al., Mol. Pharm. 42:432-438 (1993). Intrinsic activity is predicted using the ratio of the "low-affinity agonist" (i.e., LowAg) state of the receptor and the "high-affinity agonist" (i.e., HighAg) state of the receptor, i.e. LowAg/HighAg. These ratios correlate with the agonist, partial agonist, and antagonist activities of a given compound. Such activities characterize the ability of a compound to elicit an antipsychotic effect.
as §1, with “counter. […]” for “counter.”

dopamine D2 receptor [3] = target: T2, dopamine D2 receptor; assay: Affinity for the dopamine D2 receptor, 3H-spiroperidol binding in limbic brain tissue homogenate (D2 Spiper); settings: 3H-spiroperidol (Spiper.); homogenized limbic brain tissue
Protocol: High affinity for the dopamine D2 receptor was established by the standard experimental test procedure of Fields, et al., Brain Res., 136:578 (1977) and Yamamura et al., eds., Neurotransmitter Receptor Binding, Raven Press, N.Y. (1978). Homogenized limbic brain tissue was incubated with ^3 H-spiroperidol (Spiper.) and the appropriate concentrations of test compound, filtered, washed and shaken with Hydrofluor scintillation cocktail (available from National Diagnostics) and counted in a Packard 460 CD scintillation counter.

O=C1Cc2c(NCCNCc3ccccc3)cccc2N1 [Example 1, 4-(2-Benzylamino-ethylamino)-1,3-dihydro-indol-2-one.dihydrochloride.0.1 hydrate]
IC50 [1]: 13.2 nM
Ratio (dopamine D2 receptor [2]): 67.7
IC50 (dopamine D2 receptor [3]): 892 nM
